Reference: PubChem BioAssay (NCI)
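GI50: concentration for 50% inhibition of growth. At the TGI there is no net growth.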

Tested on: NCI/ADR-RES ovarian
Assay: inhibition of tumour cell growth, NCI panel, 384-well format

Q: `CN(C)C(=O)c1cc2cnc(Nc3ccc(N4CCNCC4)cn3)nc2n1C1CCCC1` was tested. Which GI50 did it give?
A: > 100 µM

Q: What about the TGI of the same compound?
A: > 100 µM

Q: Which GI50 does the source give for `COc1cc2nccc(Oc3ccc(NC(=O)C4(C(=O)Nc5ccc(F)cc5)CC4)cc3)c2cc1OC` here?
A: 2.52 µM

Q: What about the TGI of the same compound?
A: 9.33 µM

Q: What does the source list for `O=C(Nc1cccc(C(F)(F)F)c1)Nc1cc(S(=O)(=O)NC2CC2)ccc1-c1ccsc1`?
A: GI50: 6.69 µM; TGI: 18.3 µM

Tested on: ACHN renal
Assay: as above

Q: How did the GI50 turn out when `CN(C)C(=O)c1cc2cnc(Nc3ccc(N4CCNCC4)cn3)nc2n1C1CCCC1` was run?
A: 5.81 µM

Q: What about the TGI of the same compound?
A: 46.7 µM

Q: Which GI50 does the source give for `COc1cc2nccc(Oc3ccc(NC(=O)C4(C(=O)Nc5ccc(F)cc5)CC4)cc3)c2cc1OC` here?
A: 3.54 µM

Q: What about the TGI of the same compound?
A: 16 µM

Q: How did the GI50 turn out when `O=C(Nc1cccc(C(F)(F)F)c1)Nc1cc(S(=O)(=O)NC2CC2)ccc1-c1ccsc1` was run?
A: 3.25 µM

Q: What about the TGI of the same compound?
A: 11.9 µM

Tested on: IGROV1 ovarian
Assay: as above

Q: What does the source list for `CN(C)C(=O)c1cc2cnc(Nc3ccc(N4CCNCC4)cn3)nc2n1C1CCCC1`?
A: GI50: 26.2 µM; TGI: 98.8 µM

Q: How did the GI50 turn out when `COc1cc2nccc(Oc3ccc(NC(=O)C4(C(=O)Nc5ccc(F)cc5)CC4)cc3)c2cc1OC` was run?
A: 1.64 µM

Q: And the TGI?
A: 3.8 µM

Q: With `O=C(Nc1cccc(C(F)(F)F)c1)Nc1cc(S(=O)(=O)NC2CC2)ccc1-c1ccsc1` as the compound, how does the GI50 read?
A: 8.86 µM

Q: And the TGI?
A: 21.7 µM

Tested on: M14 melanoma
Assay: as above

Q: For `CN(C)C(=O)c1cc2cnc(Nc3ccc(N4CCNCC4)cn3)nc2n1C1CCCC1`, which GI50 is on record?
A: 30.2 µM

Q: And the TGI?
A: > 89.2 µM

Q: Which GI50 does the source give for `COc1cc2nccc(Oc3ccc(NC(=O)C4(C(=O)Nc5ccc(F)cc5)CC4)cc3)c2cc1OC` here?
A: 2.67 µM

Q: What about the TGI of the same compound?
A: 7.03 µM

Q: `O=C(Nc1cccc(C(F)(F)F)c1)Nc1cc(S(=O)(=O)NC2CC2)ccc1-c1ccsc1` was tested. Which GI50 did it give?
A: 5.88 µM

Q: And the TGI?
A: 16.7 µM

Tested on: UACC-62 melanoma
Assay: as above

Q: How did the GI50 turn out when `CN(C)C(=O)c1cc2cnc(Nc3ccc(N4CCNCC4)cn3)nc2n1C1CCCC1` was run?
A: 18.2 µM

Q: What about the TGI of the same compound?
A: > 63.7 µM

Q: How did the GI50 turn out when `COc1cc2nccc(Oc3ccc(NC(=O)C4(C(=O)Nc5ccc(F)cc5)CC4)cc3)c2cc1OC` was run?
A: 2.23 µM

Q: And the TGI?
A: 6.52 µM

Q: `O=C(Nc1cccc(C(F)(F)F)c1)Nc1cc(S(=O)(=O)NC2CC2)ccc1-c1ccsc1` was tested. Which GI50 did it give?
A: 7.26 µM

Q: What about the TGI of the same compound?
A: 19.5 µM

Tested on: SNB-19 CNS
Assay: as above

Q: What does the source list for `CN(C)C(=O)c1cc2cnc(Nc3ccc(N4CCNCC4)cn3)nc2n1C1CCCC1`?
A: GI50: > 67.7 µM; TGI: > 100 µM

Q: What does the source list for `COc1cc2nccc(Oc3ccc(NC(=O)C4(C(=O)Nc5ccc(F)cc5)CC4)cc3)c2cc1OC`?
A: GI50: 7.3 µM; TGI: > 55.2 µM

Q: Which GI50 does the source give for `O=C(Nc1cccc(C(F)(F)F)c1)Nc1cc(S(=O)(=O)NC2CC2)ccc1-c1ccsc1` here?
A: 4.51 µM

Q: And the TGI?
A: 14.7 µM

Tested on: BT-549 breast
Assay: as above

Q: `CN(C)C(=O)c1cc2cnc(Nc3ccc(N4CCNCC4)cn3)nc2n1C1CCCC1` was tested. Which GI50 did it give?
A: 20.2 µM

Q: And the TGI?
A: 58.9 µM

Q: With `COc1cc2nccc(Oc3ccc(NC(=O)C4(C(=O)Nc5ccc(F)cc5)CC4)cc3)c2cc1OC` as the compound, how does the GI50 read?
A: 4.15 µM

Q: And the TGI?
A: 12.9 µM

Q: Which GI50 does the source give for `O=C(Nc1cccc(C(F)(F)F)c1)Nc1cc(S(=O)(=O)NC2CC2)ccc1-c1ccsc1` here?
A: 7.6 µM

Q: What about the TGI of the same compound?
A: 19.8 µM

Tested on: LOX IMVI melanoma
Assay: as above

Q: With `CN(C)C(=O)c1cc2cnc(Nc3ccc(N4CCNCC4)cn3)nc2n1C1CCCC1` as the compound, how does the GI50 read?
A: 8.51 µM

Q: And the TGI?
A: 47.9 µM

Q: Which results are given for `COc1cc2nccc(Oc3ccc(NC(=O)C4(C(=O)Nc5ccc(F)cc5)CC4)cc3)c2cc1OC`?
A: GI50: 3.24 µM; TGI: 9.47 µM

Q: What does the source list for `O=C(Nc1cccc(C(F)(F)F)c1)Nc1cc(S(=O)(=O)NC2CC2)ccc1-c1ccsc1`?
A: GI50: 4.08 µM; TGI: 13.1 µM

Tested on: HCT-116 colon
Assay: as above

Q: How did the GI50 turn out when `CN(C)C(=O)c1cc2cnc(Nc3ccc(N4CCNCC4)cn3)nc2n1C1CCCC1` was run?
A: 7.55 µM

Q: What about the TGI of the same compound?
A: 23.5 µM

Q: Which GI50 does the source give for `COc1cc2nccc(Oc3ccc(NC(=O)C4(C(=O)Nc5ccc(F)cc5)CC4)cc3)c2cc1OC` here?
A: 3.78 µM

Q: What about the TGI of the same compound?
A: 14.2 µM

Q: `O=C(Nc1cccc(C(F)(F)F)c1)Nc1cc(S(=O)(=O)NC2CC2)ccc1-c1ccsc1` was tested. Which GI50 did it give?
A: 3.17 µM

Q: And the TGI?
A: 10.6 µM

Tested on: T-47D breast
Assay: as above

Q: With `CN(C)C(=O)c1cc2cnc(Nc3ccc(N4CCNCC4)cn3)nc2n1C1CCCC1` as the compound, how does the GI50 read?
A: 9800 nM

Q: What about the TGI of the same compound?
A: > 46.4 µM

Q: What does the source list for `COc1cc2nccc(Oc3ccc(NC(=O)C4(C(=O)Nc5ccc(F)cc5)CC4)cc3)c2cc1OC`?
A: GI50: 2780 nM; TGI: 10 µM

Q: For `O=C(Nc1cccc(C(F)(F)F)c1)Nc1cc(S(=O)(=O)NC2CC2)ccc1-c1ccsc1`, which GI50 is on record?
A: 2620 nM

Q: And the TGI?
A: 8.35 µM

Tested on: K-562 leukemia
Assay: as above

Q: Which results are given for `CN(C)C(=O)c1cc2cnc(Nc3ccc(N4CCNCC4)cn3)nc2n1C1CCCC1`?
A: GI50: 10.8 µM; TGI: 29.7 µM

Q: What does the source list for `COc1cc2nccc(Oc3ccc(NC(=O)C4(C(=O)Nc5ccc(F)cc5)CC4)cc3)c2cc1OC`?
A: GI50: 0.295 µM; TGI: 1.07 µM

Q: For `O=C(Nc1cccc(C(F)(F)F)c1)Nc1cc(S(=O)(=O)NC2CC2)ccc1-c1ccsc1`, which GI50 is on record?
A: 3.45 µM

Q: And the TGI?
A: 11.5 µM

Tested on: U251 glioblastoma
Assay: as above

Q: Which GI50 does the source give for `CN(C)C(=O)c1cc2cnc(Nc3ccc(N4CCNCC4)cn3)nc2n1C1CCCC1` here?
A: 30.8 µM

Q: And the TGI?
A: > 46.4 µM

Q: For `COc1cc2nccc(Oc3ccc(NC(=O)C4(C(=O)Nc5ccc(F)cc5)CC4)cc3)c2cc1OC`, which GI50 is on record?
A: 5.32 µM

Q: What about the TGI of the same compound?
A: 17.9 µM

Q: With `O=C(Nc1cccc(C(F)(F)F)c1)Nc1cc(S(=O)(=O)NC2CC2)ccc1-c1ccsc1` as the compound, how does the GI50 read?
A: 3.43 µM

Q: What about the TGI of the same compound?
A: 11.3 µM
